The results in this text go back to paper PMC2099433, “The binding site for neohesperidin dihydrochalcone at the human sweet taste receptor” (BMC Structural Biology, 2007).

For test [1], the target named is T1, hTAS1R2 + hTAS1R3 V621L^2.58 (Homo sapiens, UniProt Q7RTX0+Q8TE23, V621L).
T1 construct: expressed in transfected cells; host or cells: HEK293T cells stably expressing G16Gust44
T1 sequence (Q8TE23 20-839): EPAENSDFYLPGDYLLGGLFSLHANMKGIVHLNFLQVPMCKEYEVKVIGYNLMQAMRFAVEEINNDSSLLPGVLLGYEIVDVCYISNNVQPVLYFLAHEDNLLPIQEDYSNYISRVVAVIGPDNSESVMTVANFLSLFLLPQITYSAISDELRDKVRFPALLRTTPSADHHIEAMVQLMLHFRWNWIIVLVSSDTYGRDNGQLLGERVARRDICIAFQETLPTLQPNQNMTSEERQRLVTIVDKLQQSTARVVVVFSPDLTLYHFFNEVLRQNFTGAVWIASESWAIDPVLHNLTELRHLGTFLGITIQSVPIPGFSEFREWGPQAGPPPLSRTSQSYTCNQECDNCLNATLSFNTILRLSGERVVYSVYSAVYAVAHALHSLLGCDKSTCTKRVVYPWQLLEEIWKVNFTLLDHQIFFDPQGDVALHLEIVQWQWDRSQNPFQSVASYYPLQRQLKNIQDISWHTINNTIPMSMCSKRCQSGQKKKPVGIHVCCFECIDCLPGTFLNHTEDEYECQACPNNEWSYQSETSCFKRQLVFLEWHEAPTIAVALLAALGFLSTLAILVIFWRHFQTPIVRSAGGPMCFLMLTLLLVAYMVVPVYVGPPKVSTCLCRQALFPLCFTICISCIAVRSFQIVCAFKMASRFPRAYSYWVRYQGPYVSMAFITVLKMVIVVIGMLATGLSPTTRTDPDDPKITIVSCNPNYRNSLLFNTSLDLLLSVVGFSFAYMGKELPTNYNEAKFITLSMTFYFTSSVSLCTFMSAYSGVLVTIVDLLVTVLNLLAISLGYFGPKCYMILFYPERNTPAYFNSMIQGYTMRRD
T1 sequence (Q7RTX0 21-852 V621L): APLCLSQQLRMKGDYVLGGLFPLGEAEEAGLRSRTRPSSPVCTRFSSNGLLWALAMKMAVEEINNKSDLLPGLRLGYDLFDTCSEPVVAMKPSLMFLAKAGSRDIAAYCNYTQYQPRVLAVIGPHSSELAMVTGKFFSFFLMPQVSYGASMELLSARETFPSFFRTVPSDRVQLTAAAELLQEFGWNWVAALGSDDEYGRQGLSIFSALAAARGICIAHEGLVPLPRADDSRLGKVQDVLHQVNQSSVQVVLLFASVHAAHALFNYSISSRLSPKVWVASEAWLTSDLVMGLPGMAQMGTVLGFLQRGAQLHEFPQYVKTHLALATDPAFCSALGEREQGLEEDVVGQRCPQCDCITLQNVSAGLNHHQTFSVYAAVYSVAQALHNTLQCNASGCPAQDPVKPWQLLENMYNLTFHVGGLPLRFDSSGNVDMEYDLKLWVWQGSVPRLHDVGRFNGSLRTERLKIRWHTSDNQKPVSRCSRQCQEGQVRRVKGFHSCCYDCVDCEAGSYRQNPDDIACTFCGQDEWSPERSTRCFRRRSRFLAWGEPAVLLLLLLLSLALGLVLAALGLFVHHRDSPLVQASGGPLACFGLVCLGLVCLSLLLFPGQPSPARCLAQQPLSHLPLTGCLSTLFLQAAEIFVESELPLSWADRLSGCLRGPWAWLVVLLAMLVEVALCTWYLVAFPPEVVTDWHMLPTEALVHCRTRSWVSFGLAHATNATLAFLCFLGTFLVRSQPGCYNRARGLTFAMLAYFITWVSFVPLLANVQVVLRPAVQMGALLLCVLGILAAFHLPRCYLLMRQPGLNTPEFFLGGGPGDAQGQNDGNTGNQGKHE
Description: Calcium response (FLIPR), hTAS1R3 mutant coexpressed with hTAS1R2. In kind it is cell-based. To be noted: for receptor activation: mutant V621L^2.58; for EC50: variant V621L^2.58, n.f. = no response to any tested sweetener. As for the experimental part: (§1) The cDNAs for TAS1Rs tagged at the C-terminus with the herpes simplex virus glycoprotein D (HSV) were transiently transfected into HEK293T cells stably expressing the chimeric G-protein subunit G16Gust44 [44] using Lipofectamine 2000 (Invitrogen, Carlsbad, CA) according to the manufacturer's protocol. 3–4 hours after transfection, DMEM was replaced by low-glucose DMEM supplemented with GlutaMAX and 10% dialyzed FBS (Invitrogen, Carlsbad, CA). 24 h post transfection, cells were loaded for 1 h with the calcium sensitive dye Fluo4-AM (2 μg/ml in DMEM, Molecular Probes, Carlsbad, CA). […] We monitored calcium mobilization following receptor stimulation with sweet tastants by an automated fluorometric imaging plate reader (FLIPR, Molecular Devices, Sunnyvale, CA). Compounds used as stimuli (Sigma-Aldrich, St. Louis, MO; Merck, Whitehouse Station, NJ) were dissolved in C1 solution. All data were collected from at least three independent experiments carried out in duplicate. The obtained calcium signals were corrected for the response of mock transfected cells and normalized to the fluorescence of cells prior to the application of the stimulus using ΔF/F = (F-F0)/F0.

In test [2] the target is T2, hTAS1R2 + hTAS1R3 C801L^7.39 (Homo sapiens, UniProt Q7RTX0+Q8TE23, C801L).
T2 construct: expressed in transfected cells; host or cells: HEK293T cells stably expressing G16Gust44
T2 sequence (Q7RTX0 21-852 C801L): T1 sequence (Q7RTX0 21-852 V621L) with L601V, C781L
T2 sequence (Q8TE23 20-839): T1 sequence (Q8TE23 20-839)
The test is described as above. The following applies: for receptor activation: mutant C801L^7.39; for EC50: variant C801L^7.39, n.f. = no response to any tested sweetener. In kind it is cell-based. Here is the method: as §1

Changes are numbered by the printed parent chain. Where a SMILES comes first, the peptide text is derived from it.

Take `COc1ccc(CCC(=O)c2c(O)cc(O[C@@H]3O[C@H](CO)[C@@H](O)[C@H](O)[C@H]3O[C@@H]3O[C@@H](C)[C@H](O)[C@@H](O)[C@H]3O)cc2O)cc1O` [NHDC, neohesperidin dihydrochalcone]: the receptor activation entry in test [1] and in test [2] was “could not be activated” in each case. The EC50 result in test [1] and in test [2] was “n.f” throughout.

Consider `O=S(=O)(O)NC1CCCCC1` [cyclamate], for which the receptor activation result in test [1] and in test [2] was “could not be activated” each time.

As to `COC(=O)[C@H](Cc1ccccc1)NC(=O)[C@@H](N)CC(=O)O` [aspartame] (HELM PEPTIDE1{D.F.[CO[*:1]]}$$$$V2.0), in test [1], the receptor activation entry is “could not be activated” and the EC50 entry was “n.f”. For the same compound, in test [2], the receptor activation result is “could not be activated” and the EC50 entry is “n.f”.

With `CC1=CC(=O)NS(=O)(=O)O1` [acesulfame K], the receptor activation entry in test [1] and in test [2] was “could not be activated” throughout.
